Results taken from US11154529B2, “Phosphaplatin liquid formulations” (Phosplatin Therapeutics Inc., priority 2016, dated 2021).

Assay: Ready-to-use formulation stability at 2-8° C., 5 mg/mL (R,R)-pyrodach-2 in 10 mM Potassium Phosphate Buffer at pH 7.2, 10 mL vials
Type: physicochemical
Description: A scalable and commercially viable process for the manufacture of a ready-to-use formulation of (R,R)-pyrodach-2 in 10 mM buffer adjusted to a pH of 7.0-7.5 comprises the steps of: a) preparing a 10 mM aqueous solution of buffer; b) adding sufficient hydroxide base to effect neutralization of the added (R,R)-pyrodach-2 to reach a pH of about 7; c) adding (R,R)-pyrodach-2 and allowing it to dissolve; d) if necessary adding additional hydroxide to adjust the pH into a range of about 7.0-7.5; and e) filtering the solution under sterile conditions, filling the solution into glass vials, and covering it with a stopper and/or a cap. Stability data on two large batches of 5 mg/mL (R,R)-pyrodach-2 in 10 mM potassium phosphate buffer were generated. One such batch at pH=7.2 was evaluated at both 25° C./60% RH and refrigerated (2-8° C.) conditions, with data summarized in Table 4 and Table 5, respectively. […] Similar observations have been made for the ready-to-use liquid formulation at pH7.4, as illustrated in Table 6 and Table 7.
• Transfer 4564.6 mg±0.5 mg of potassium phosphate dibasic, trihydrate to a 2-L volumetric flask. • Fill flask to approximately 75% volume with water, swirl as needed to dissolve all solids. • Volumetrically transfer 32.0 mL of 1N KOH to flask. • Dilute flask to volume with water and mix well. • Record pH of final solution. This is the diluent. • Transfer 7653.1 mg±0.5 mg of (R,R)-pyrodach-2 to a compounding vessel. • Transfer 1500 mL of the diluent to the vessel and stir to dissolve solids. • Record pH of final solution. • Pass entire solution through a 0.22 μm sterile filter membrane into a sterile collection vessel. • Calculate (R,R)-pyrodach-2 solution concentration
To a […] glass beaker equipped with mechanical mixer was add 24645.5 g of sterile water for injection. With agitation 47.03 gm of dibasic potassium phosphate USP was added and the solids allowed to dissolve. To the stirred solution was added 253.8 gm of 1.00 N potassium hydroxide. Sterile water for injection USP (900.0 gm) was used as a rinse to facilitate both additions. With vigorous agitation, (R,R)-pyrodach-2 (201.87 gm) was slowly added and agitation continued until all of the solids dissolved. Sterile water for injection USP (900.0 gm) was used as a rinse to facilitate the addition. The pH was determined to be 6.7. A total of 85 mL of 1.00 N potassium hydroxide was added in 5.0 mL aliquots to adjust the pH to 7.3. The solution was sterile filtered through 0.22μ Millipore Millipack filter and aseptically filled, 10 ml top a vial in 10 mL in 10 cc Wheaton clear molded vails, stoppered with a 20 mm stopper and crimp seal capped.

For `O=P1(O)OP(=O)(O)[O][Pt]2([NH][C@@H]3CCCC[C@H]3[NH]2)[O]1` (stereo partly drawn) [(R,R)-pyrodach-2, (R,R)-trans-1,2-cyclohexanediamine-(dihydrogenpyrophosphato)platinum(II)], the “(DACH) Pt-diaquo (~RRT 0.3)” value (1 Month) was 0.17%, the “(DACH) Pt-monoaquo (~RRT 0.7)” value (1 Month) was 0.84% and the “Assay (Potency)” value (1 Month) was 97.7%. The “PT-112 Dimer (~RRT 4.0)” value (1 Month) was 0.21%, the “RRT 0.56” value (1 Month) was 0.11% and the “Total Related Substances” value (1 Month) was 1%. For the same molecule, the pH (1 Month) was 7.2, the “(DACH) Pt-diaquo (~RRT 0.3)” value (2 Month) was 0.09% and the “(DACH) Pt-monoaquo (~RRT 0.7)” value (2 Month) was 0.91%. For the same molecule, the “Assay (Potency)” value (2 Month) was 100.1%, the “PT-112 Dimer (~RRT 4.0)” value (2 Month) was 0.25% and the “RRT 0.56” value (2 Month) was 0.10%. The “RRT 0.68” value (2 Month) was 0.06%, the “Total Related Substances” value (2 Month) was 1% and the pH (2 Month) was 7.2. For the same molecule, the “(DACH) Pt-diaquo (~RRT 0.3)” value (3 Month) was 0.18%, the “(DACH) Pt-monoaquo (~RRT 0.7)” value (3 Month) was 0.82% and the “Assay (Potency)” value (3 Month) was 98.2%. The “PT-112 Dimer (~RRT 4.0)” value (3 Month) was 0.31%, the “RRT 0.56” value (3 Month) was 0.12% and the “RRT 0.68” value (3 Month) was 0.05%. The “RRT 3.1-3.2” value (3 Month) was 0.08%, the “Total Related Substances” value (3 Month) was 2% and the pH (3 Month) was 7.2. For the same molecule, the “(DACH) Pt-diaquo (~RRT 0.3)” value (4 Month) was 0.13%, the “(DACH) Pt-monoaquo (~RRT 0.7)” value (4 Month) was 0.88% and the “Assay (Potency)” value (4 Month) was 98.6%. For the same molecule, the “PT-112 Dimer (~RRT 4.0)” value (4 Month) was 0.27%, the “RRT 0.50” value (4 Month) was 0.05% and the “RRT 0.56” value (4 Month) was 0.13%. For the same molecule, the “RRT 3.1-3.2” value (4 Month) was 0.07%, the “Total Related Substances” value (4 Month) was 2% and the pH (4 Month) was 7.3. The “(DACH) Pt-diaquo (~RRT 0.3)” value (6 Month) was 0.18%, the “(DACH) Pt-monoaquo (~RRT 0.7)” value (6 Month) was 0.91% and the “Assay (Potency)” value (6 Month) was 98.4%. The “PT-112 Dimer (~RRT 4.0)” value (6 Month) was 0.28%, the “RRT 0.56” value (6 Month) was 0.12% and the “RRT 0.68” value (6 Month) was 0.05%. The “RRT 3.1-3.2” value (6 Month) was 0.10%, the “Total Related Substances” value (6 Month) was 2% and the pH (6 Month) was 7.3. For the same molecule, the “Particulate Matter (Light Obscuration)” value (6 Month, first value) was 150 particles per container, the “Particulate Matter (Light Obscuration)” value (6 Month, second value) was 8 particles particles per container and the “(DACH) Pt-diaquo (~RRT 0.3)” value (9 Month) was 0.14%. The “(DACH) Pt-monoaquo (~RRT 0.7)” value (9 Month) was 1.05%, the “Assay (Potency)” value (9 Month) was 97.8% and the “PT-112 Dimer (~RRT 4.0)” value (9 Month) was 0.29%. For the same molecule, the “RRT 0.56” value (9 Month) was 0.16%, the “RRT 0.68” value (9 Month) was 0.06% and the “RRT 3.1-3.2” value (9 Month) was 0.10%. The “Total Related Substances” value (9 Month) was 2%, the pH (9 Month) was 7.2 and the “(DACH) Pt-diaquo (~RRT 0.3)” value (12 Month) was 0.20%. The “(DACH) Pt-monoaquo (~RRT 0.7)” value (12 Month) was 1.02%, the “Assay (Potency)” value (12 Month) was 97.8% and the “PT-112 Dimer (~RRT 4.0)” value (12 Month) was 0.29%. The “RRT 0.50” value (12 Month) was 0.06%, the “RRT 0.56” value (12 Month) was 0.16% and the “RRT 0.68” value (12 Month) was 0.10%. For the same molecule, the “RRT 3.1-3.2” value (12 Month) was 0.16%, the “Total Related Substances” value (12 Month) was 2% and the pH (12 Month) was 7.2. The “Particulate Matter (Light Obscuration)” value (12 Month, first value) was 236 particles per container, the “Particulate Matter (Light Obscuration)” value (12 Month, second value) was 4 particles particles per container and the “(DACH) Pt-diaquo (~RRT 0.3)” value (15 Month) was 0.15%. The “(DACH) Pt-monoaquo (~RRT 0.7)” value (15 Month) was 0.92%, the “Assay (Potency)” value (15 Month) was 98.7% and the “PT-112 Dimer (~RRT 4.0)” value (15 Month) was 0.29%. The “RRT 0.50” value (15 Month) was 0.07%, the “RRT 0.56” value (15 Month) was 0.19% and the “RRT 0.68” value (15 Month) was 0.06%. The “RRT 3.1-3.2” value (15 Month) was 0.22%, the “Total Related Substances” value (15 Month) was 2% and the pH (15 Month) was 7.2. The “(DACH) Pt-diaquo (~RRT 0.3)” value (18 Month) was 0.15%, the “(DACH) Pt-monoaquo (~RRT 0.7)” value (18 Month) was 0.93% and the “Assay (Potency)” value (18 Month) was 100.3%. The “PT-112 Dimer (~RRT 4.0)” value (18 Month) was 0.31%, the “RRT 0.50” value (18 Month) was 0.07% and the “RRT 0.56” value (18 Month) was 0.19%. The “RRT 0.68” value (18 Month) was 0.07%, the “RRT 3.1-3.2” value (18 Month) was 0.19% and the “RRT 3.54” value (18 Month) was 0.05%. For the same molecule, the “Total Related Substances” value (18 Month) was 2%, the pH (18 Month) was 7.3 and the “(DACH) Pt-diaquo (~RRT 0.3)” value (24 Month) was 0.17%. The “(DACH) Pt-monoaquo (~RRT 0.7)” value (24 Month) was 0.82%, the “Assay (Potency)” value (24 Month) was 97.1% and the “PT-112 Dimer (~RRT 4.0)” value (24 Month) was 0.31%. The “RRT 0.46” value (24 Month) was 0.06%, the “RRT 0.50” value (24 Month) was 0.22% and the “RRT 0.56” value (24 Month) was 0.09%. For the same molecule, the “RRT 0.68” value (24 Month) was 0.05%, the “RRT 3.1-3.2” value (24 Month) was 0.22% and the “RRT 3.54” value (24 Month) was 0.11%. The “Total Related Substances” value (24 Month) was 2%, the pH (24 Month) was 7.2 and the “Particulate Matter (Light Obscuration)” value (24 Month, first value) was 41 particles per container. For the same molecule, the “Particulate Matter (Light Obscuration)” value (24 Month, second value) was 12 particles per container, the “(DACH) Pt-diaquo (~RRT 0.3)” value (30 Month) was 0.14% and the “(DACH) Pt-monoaquo (~RRT 0.7)” value (30 Month) was 0.96%. The “Assay (Potency)” value (30 Month) was 98.2%, the “PT-112 Dimer (~RRT 4.0)” value (30 Month) was 0.33% and the “RRT 0.50” value (30 Month) was 0.17%. For the same molecule, the “RRT 0.56” value (30 Month) was 0.19%, the “RRT 0.68” value (30 Month) was 0.08% and the “RRT 3.1-3.2” value (30 Month) was 0.31%. The “RRT 3.54” value (30 Month) was 0.10%, the “Total Related Substances” value (30 Month) was 2% and the pH (30 Month) was 7.2. The “Particulate Matter (Light Obscuration)” value (30 Month, first value) was 62 particles per container, the “Particulate Matter (Light Obscuration)” value (30 Month, second value) was 6 particles particles per container and the “(DACH) Pt-diaquo (~RRT 0.3)” value (36 Month) was 0.12%. The “(DACH) Pt-monoaquo (~RRT 0.7)” value (36 Month) was 1.16%, the “Assay (Potency)” value (36 Month) was 97.8% and the “PT-112 Dimer (~RRT 4.0)” value (36 Month) was 0.36%. The “RRT 0.46” value (36 Month) was 0.07%, the “RRT 0.50” value (36 Month) was 0.23% and the “RRT 0.56” value (36 Month) was 0.11%. For the same molecule, the “RRT 0.68” value (36 Month) was 0.09%, the “RRT 3.1-3.2” value (36 Month) was 0.30% and the “RRT 3.54” value (36 Month) was 0.14%. For the same molecule, the “Total Related Substances” value (36 Month) was 3%, the pH (36 Month) was 7.2 and the “(DACH) Pt-diaquo (~RRT 0.3)” value (Initial) was 0.16%. For the same molecule, the “(DACH) Pt-monoaquo (~RRT 0.7)” value (Initial) was 0.98%, the “Assay (Potency)” value (Initial) was 99.8% and the “PT-112 Dimer (~RRT 4.0)” value (Initial) was 0.19%. The “RRT 0.56” value (Initial) was 0.13%, the “RRT 0.68” value (Initial) was 0.05% and the “Total Related Substances” value (Initial) was 2%. The pH (Initial) was 7.2, the “Particulate Matter (Light Obscuration)” value (Initial, first value) was 219 particles per container and the “Particulate Matter (Light Obscuration)” value (Initial, second value) was 11 particles per container.
